From PMC8662641, “Site-Specific Labeling of Endogenous Proteins Using CoLDR Chemistry” (Journal of the American Chemical Society, 2021)

Tests used:
BTK = BTK (Homo sapiens, UniProt Q06187); parameters: BTK kinase domain was expressed and purified as previously reported; made in house; method as in Reddi et al., J. Am. Chem. Soc. 2021, 143 (13), 4979–4992; conditions: ref Reddi et al., J. Am. Chem. Soc. 2021, 143 (13), 4979–4992; cited from earlier work
BTK-1h = target: T1, BTK-1h (Homo sapiens, UniProt Q06187); experiment: High-throughput screening with 1h-labeled BTK; format: binding
T1 construct: The BTK kinase domain was diluted to 2 μM in the buffer, and 2 μM 1h was added; made in house
T1 sequence (Q06187 402-655): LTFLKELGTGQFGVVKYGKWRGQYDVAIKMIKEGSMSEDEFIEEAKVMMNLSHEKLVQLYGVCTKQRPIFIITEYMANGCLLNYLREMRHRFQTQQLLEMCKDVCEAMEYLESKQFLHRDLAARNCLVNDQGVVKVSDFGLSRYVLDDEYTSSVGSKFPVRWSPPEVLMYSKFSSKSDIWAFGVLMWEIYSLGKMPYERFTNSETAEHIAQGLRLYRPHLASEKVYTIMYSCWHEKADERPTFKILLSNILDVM
Experimental: The collection was composed of BTK binding compounds obtained in our previous luminescence screen[37] (Data set S2). […] The resulting BTK-1h (50 μL) was added to the inhibitors.

[1] = Dataset S2A, 200 μM compound, BTK-1h, 32 °C, 10 min

Chain of BTK (Q06187 402-655 limits assumed): as the sequence (Q06187 402-655) above

SMILES	BTK Inhibition reported in luminescence assay* (BTK)	FI (650)/FI (620) (BTK-1h; [1])	FI (BTK-1h)/FI (BTK-1h+Inhibitor) at 620 nm (BTK-1h; [1])	FI (650)/FI (620) (BTK-1h; Dataset S2C, BTK-1h with inhibitor)
CN1CCN(Cc2ccc(-c3cnc4[nH]cc(-c5ccc6[nH]ccc6c5)c4c3)cc2)CC1 [PCM-0215377-001]	111	1.4774	1.04	–
CCOC(=O)c1ccc(NC(=O)O[C@H]2[C@H](OC(=O)Nc3ccc4c(c3)OCO4)[C@@H](OC(=O)Nc3ccc4c(c3)OCO4)[C@@H](OC)O[C@@H]2CO)cc1 [PCM-0215463-001]	98.1	0.9726	1.02	–
CCCCc1oc2ccccc2c1C(=O)c1cc(I)c(OCCN(CC)CC)c(I)c1.Cl [PCM-0064561-003]	75.5	1.028	1.018	–
COCCOC(=O)C1=C(C)NC(C)=C(C(=O)OC/C=C/c2ccccc2)C1c1cccc([N+](=O)[O-])c1 (stereo not drawn) [PCM-0065102-001]	59.9	0.8604	1.035	–
C=CC(=O)Nc1ccc2ncnc(Nc3ccc(OCc4cccc(F)c4)c(Cl)c3)c2c1.Cc1ccc(S(=O)(=O)O)cc1 [PCM-0095229-002]	109.7	0.9282	1.039	–
COc1ccc2cc3[n+](cc2c1O)CCc1cc2c(cc1-3)OCO2.[Cl-] [PCM-0216489-001]	97.3	1.203	0.9862	–
Cc1ccccc1C(=O)Nc1ccc(C(=O)N2CCCC(N(C)C)c3ccccc32)cc1 (stereo not drawn) [PCM-0095424-002]	70	1.034	1.021	–
O=c1cc(-c2ccc(O)cc2)oc2cc(O)cc(O)c12 [PCM-0064643-001]	63.8	0.8396	1.036	–
COc1cc(/C=C/C(=O)CC(=O)/C=C/c2ccc(O)cc2)ccc1O [PCM-0216521-001]	110.4	2.134	0.9621	–
CC(C)(C)c1cc(/C=C(\C#N)C(N)=S)cc(C(C)(C)C)c1O [PCM-0064936-001]	82.8	0.9335	1.037	–
CC(C)(O)CC(=O)NCCn1ccc2ncnc(Nc3ccc(Oc4cccc(C(F)(F)F)c4)c(Cl)c3)c21 [PCM-0095364-002]	73.8	0.8854	1.06	–
COc1ccc2c(O[C@@H]3C[C@H]4C(=O)N[C@]5(C(=O)NS(=O)(=O)C6CC6)C[C@H]5/C=C\CCCCN(C)C(=O)[C@@H]4C3)cc(-c3nc(C(C)C)cs3)nc2c1C [PCM-0215097-001]	55.6	0.9923	1.053	–
CC(=O)O[C@@H]1CC[C@@]2(C)[C@@H](CC[C@]3(C)[C@@H]2C(=O)C=C2[C@@H]4[C@@H](C)[C@H](C)CC[C@]4(C)CC[C@]23C)[C@@]1(C)C(=O)O [PCM-0216599-001]	88	0.9109	1.037	–
O=c1cc(-c2ccccc2)oc2cc(O)c(O)c(O)c12 [PCM-0214670-001]	79.4	2.028	1.072	–
Cl.Cl.Fc1ccc(C(c2ccc(F)cc2)N2CCN(C/C=C/c3ccccc3)CC2)cc1 [PCM-0065210-003]	87.2	0.8526	1.036	–
O=C1NC(=O)C(c2cnc3ccccn23)=C1c1cn2c3c(cc(F)cc13)CN(C(=O)N1CCCCC1)CC2 [PCM-0215438-001]	80	0.9847	1.0465	–
CCOc1cc2ncc(C#N)c(Nc3ccc(F)c(Cl)c3)c2cc1NC(=O)/C=C/CN(C)C [PCM-0095063-002]	96.6	0.9721	1.036	–

SMILES	BTK Inhibition reported in luminescence assay* (BTK)	FI (650)/FI (620) (BTK-1h; [1])	FI (BTK-1h)/FI (BTK-1h+Inhibitor) at 620 nm (BTK-1h; [1])	FI (650)/FI (620) (BTK-1h; Dataset S2C, BTK-1h with inhibitor)
Cc1c(C(=O)Nc2ccc(Oc3ccnc4[nH]cc(-c5ccccc5)c34)c(F)c2)c(=O)n(-c2ccc(F)cc2)n1C [PCM-0215493-001]	95.9	1.1367	1.0338	–
COC(=O)C1=C(C)NC(C)=C(C(=O)OCCN2CCN(C(c3ccccc3)c3ccccc3)CC2)C1c1cccc([N+](=O)[O-])c1.Cl.Cl (stereo not drawn) [PCM-0090281-005]	101.2	1.357	1.072	–
CCCCCCCCCCCCc1ccc(S(=O)(=O)Nc2nncs2)cc1 [PCM-0095111-002]	53.8	1.107	1.042	–
COc1ccc2[nH]cc(/C=C3\C(=O)Nc4ccc(NC(=O)CCN5CCCCC5)cc43)c2c1 [PCM-0216653-001]	51.7	1.609	0.9946	–
C[C@@H](Oc1ccc2[nH]nc(/C=C/c3cnn(CCO)c3)c2c1)c1c(Cl)cncc1Cl [PCM-0215376-001]	101.4	1.5356	1.156	–
COc1c(O)c(C)cc2c1C(=O)c1c(O)cccc1C2=O [PCM-0216457-001]	64.1	1.085	1.022	–
O=c1c(O)c(-c2ccc(O)cc2)oc2cc(O)cc(O)c12 [PCM-0087037-002]	67.7	0.933	1.031	–
C=CC(=O)N1CCN(C(=O)CNc2cc(I)c(Cl)cc2O)CC1 [PCM-0215367-001]	84.9	1.111	1.004	–
CC1=C(O)C(=O)C=C2C1=CC=C1[C@@]2(C)CC[C@@]2(C)[C@@H]3C[C@](C)(C(=O)O)CC[C@]3(C)CC[C@]12C [PCM-0214611-001]	67.7	0.9422	1.014	–
O=C(O)C1(Cc2cccc(Nc3nccs3)n2)CCC(Oc2cccc(Cl)c2F)CC1 (stereo not drawn) [PCM-0095334-002]	102.1	1.3013	1.347	–
Cc1cc(N2CCOCC2)cc2[nH]c(-c3c(NC[C@@H](O)c4cccc(Cl)c4)cc[nH]c3=O)nc12 [PCM-0214699-001]	109	1.235	1.093	–
Cc1noc(C)c1-c1ccc(-c2cc(C(N)=O)c(NC(N)=O)s2)c(O[C@H]2CCNC2)c1 [PCM-0215541-001, AZD3264]	74.1	2.057	1.467	–
Cl.Cl.Cl.O[C@@H](COc1cccc2ncccc12)CN1CCN(C2c3ccccc3[C@@H]3[C@H](c4ccccc42)C3(F)F)CC1 (stereo partly drawn) [PCM-0095161-003]	102.7	0.9335	1.115	–
Cl.Cl.O=C1c2c(O)ccc(O)c2C(=O)c2c(NCCNCCO)ccc(NCCNCCO)c21 [PCM-0065547-003]	51	1.449	1.019	–
O=C([O-])CCN1C(=O)/C(=C/c2ccc(-c3ccc([N+](=O)[O-])cc3)o2)SC1=S.[K+] [PCM-0215696-001]	59.5	0.9958	1.02	–
O=C(O)c1cc(O)c2c(c1)[C@@H]([C@H]1c3cc(C(=O)O)cc(O)c3C(=O)c3c(O[C@@H]4O[C@H](CO)[C@@H](O)[C@H](O)[C@H]4O)cccc31)c1cccc(O[C@@H]3O[C@H](CO)[C@@H](O)[C@H](O)[C@H]3O)c1C2=O [PCM-0086913-003, Sennoside B]	84.1	–	1.82	1.82
